US6177253A, “Screening methods for the identification of anti-HIV compounds employing a cyclosporine-specific monoclonal antibody that cross-reacts with HIV-1 p24” (priority 1998, dated 2001)
Entries after “also recorded” stand apart in the source; their conditions may differ.

Key:
[1] = tested on: R575; test: Inhibition RIA of [3H]CsA binding to rabbit anti-cyclosporine antibodies R575; details: for affinity group for the rabbit antibodies: inhibition RIA, in words; for IC50: read-out: IC50 = Concentration for 50% inhibition, inhibition of [3H] dihydro CsA binding to rabbit antibody R575
Procedure: Serum antibodies were detected by a modification of the published radioimmunoassay (5, 12). […] Binding by diluted preimmune serum was used as a control. Free and bound ligand were separated with charcoal supplied by Sandoz according to their procedure. […] The cyclosporin derivatives were dissolved in 100% ethanol at a concentration of 5.0 mg/ml, stored at -20° C., and diluted to final concentrations of 0.27 nM to 2.7 μM in Sandoz buffer B for the inhibition experiments.

[2] = single break in a peptide bond by N O shift; cited from earlier work

| affinity group for the rabbit antibodies [1] | inhibition of [^3 H] CsA binding obtainable ([1]; maximal inhibition) | IC50 [1] [nM] | affinity group for the rabbit antibodies ([1]; listed as CSC) | SMILES | biological activity [2] |
| --- | --- | --- | --- | --- | --- |
| Moderate affinities |  | 12 |  | C/C=C/C[C@@H](C)[C@@H](O)[C@H]1C(=O)N[C@@H](CC)C(=O)N2CCC[C@H]2C(=O)N(C)[C@@H](CC(C)C)C(=O)N[C@@H](C(C)C)C(=O)N(C)[C@@H](CC(C)C)C(=O)N[C@@H](C)C(=O)N[C@H](C)C(=O)N(C)[C@@H](CC(C)C)C(=O)N(C)[C@@H](CC(C)C)C(=O)N(C)[C@@H](C(C)C)C(=O)N1C [compound 582] |  |
| high affinity; also recorded: bind best |  | 7 |  | C/C=C/C[C@@H](C)[C@@H](O)[C@H]1C(=O)N[C@@H](CC)C(=O)N(C)CC(=O)N(C)[C@@H](CC(C)C)C(=O)N[C@@H](C(C)C)C(=O)N(C)[C@@H](CC(C)C)C(=O)N[C@@H](C)C(=O)N[C@H](C)C(=O)N(C)[C@@H](CC(C)C)C(=O)N(C)[C@@H](CC(C)C)C(=O)N(C)[C@@H]([C@@H](C)CC)C(=O)N1C [compound 032] |  |
|  |  |  |  | C/C=C/C[C@@H](C)[C@H]1OC(=O)[C@H](C(C)C)N(C)C(=O)[C@H](CC(C)C)N(C)C(=O)[C@H](CC(C)C)N(C)C(=O)[C@@H](C)NC(=O)[C@H](C)NC(=O)[C@H](CC(C)C)N(C)C(=O)[C@H](C(C)C)NC(=O)[C@H](CC(C)C)N(C)C(=O)CN(C)C(=O)[C@H](CC)NC(=O)[C@H]1NC [iso-CsA] | loss of activity |
| Moderate affinities |  | 11.5 | moderate affinities | C/C=C/C[C@@H](C)[C@@H](O)[C@H]1C(=O)N[C@@H]([C@@H](C)O)C(=O)N(C)CC(=O)N(C)[C@@H](CC(C)C)C(=O)N[C@@H](C(C)C)C(=O)N(C)[C@@H](CC(C)C)C(=O)N[C@@H](C)C(=O)N[C@H](C)C(=O)N(C)[C@@H](CC(C)C)C(=O)N(C)[C@@H](CC(C)C)C(=O)N(C)[C@@H](C(C)C)C(=O)N1C [CsC] |  |
| high affinity; also recorded: bind best |  | 4.8 |  | C/C=C/C[C@@H](C)[C@@H](O)[C@H]1C(=O)N[C@@H]([C@@H](C)OC(C)=O)C(=O)N(C)CC(=O)N(C)[C@@H](CC(C)C)C(=O)N[C@@H](C(C)C)C(=O)N(C)[C@@H](CC(C)C)C(=O)N[C@@H](C)C(=O)N[C@H](C)C(=O)N(C)[C@@H](CC(C)C)C(=O)N(C)[C@@H](CC(C)C)C(=O)N(C)[C@@H](C(C)C)C(=O)N1C [compound 665] |  |
| Moderate affinities |  | 18 |  | C/C=C/C[C@@H](C)[C@@H](O)[C@H]1C(=O)N[C@@H](CC)C(=O)N(C)CC(=O)N(C)[C@@H](CC(C)C)C(=O)N[C@@H](C(C)C)C(=O)N(C)[C@H](C)C(=O)N[C@@H](C)C(=O)N[C@H](C)C(=O)N(C)[C@@H](CC(C)C)C(=O)N(C)[C@@H](CC(C)C)C(=O)N(C)[C@@H](C(C)C)C(=O)N1C [compound 039] |  |
| high affinity; also recorded: bind best |  | 4.3 |  | C/C=C/C[C@@H](C)[C@@H](O)[C@H]1C(=O)N[C@@H](C(C)C)C(=O)N(C)CC(=O)N(C)[C@@H](CC(C)C)C(=O)N[C@@H](C(C)C)C(=O)N(C)[C@@H](CC(C)C)C(=O)N[C@@H](C)C(=O)N[C@H](C)C(=O)N(C)[C@@H](CC(C)C)C(=O)N(C)[C@@H](CC(C)C)C(=O)N(C)[C@@H](C(C)C)C(=O)N1C [CsD] |  |
| high affinity; also recorded: bind best |  | 6 |  | C/C=C/C[C@@H](C)[C@@H](OC(C)=O)[C@H]1C(=O)N[C@@H](CC)C(=O)N(C)CC(=O)N(C)[C@@H](CC(C)C)C(=O)N[C@@H](C(C)C)C(=O)N(C)[C@@H](CC(C)C)C(=O)N[C@@H](C)C(=O)N[C@H](C)C(=O)N(C)[C@@H](CC(C)C)C(=O)N(C)[C@@H](CC(C)C)C(=O)N(C)[C@@H](C(C)C)C(=O)N1C [compound 243] |  |

| SMILES | affinity group for the rabbit antibodies [1] | inhibition of [^3 H] CsA binding obtainable ([1]; maximal inhibition) | IC50 [1] [nM] | affinity group for the rabbit antibodies ([1]; listed as CSC) | biological activity [2] |
| --- | --- | --- | --- | --- | --- |
| C/C=C/C[C@@H](C)[C@@H](O)[C@H]1C(=O)N[C@@H](CC)C(=O)N(C)CC(=O)N(C)[C@@H](CC(C)C)C(=O)N[C@@H](C(C)C)C(=O)N(C)[C@@H](CC(C)C)C(=O)N[C@@H](C)C(=O)N[C@H](COC(C)(C)C)C(=O)N(C)[C@@H](CC(C)C)C(=O)N(C)[C@@H](CC(C)C)C(=O)N(C)[C@@H](C(C)C)C(=O)N1C [compound 717] | inhibits very poorly; also recorded: low affinity | more than 50% | 2700 |  |  |
